{"source": "patent EP0266549A1", "about": "“Cinnamyl amines, process for their preparation and pharmaceutical compositions containing them” (BOEHRINGER MANNHEIM ITALIA S.P.A., priority 1986, dated 1988)", "origin": "cited, not measured here", "settings": "in vitro; Arch. lnt. Pharmacology, 272, 283, 1984; cited from earlier work", "note": "Structures can show the parent of a compound that is named as a salt.", "data": [{"molecule": "Fc1ccc(C(c2ccc(F)cc2)N2CCN(C/C=C/c3ccccc3)CC2)cc1", "note": "[Flunarizine HCl]", "values": [{"measurement": "activity as \"radical scavenger\"", "result": "very active"}]}]}
